Ten molecules from PMC6149949, “Synthesis and Evaluation of Thiochroman-4-One Derivatives as Potential Leishmanicidal Agents” (Molecules : A Journal of Synthetic Chemistry and Natural …, 2017) can be followed below.

A short description of one data set: in vitro. As to conditions: human. As to the method: Cytotoxicity of the compounds was evaluated over human monocytes (U-937 ATCC CRL-1593.2) in exponential growing phase and, adjusted at 1 × 10^5 cells/mL in RPMI-1640 enriched with 10% fetal bovine serum (FBS). One hundred microliters of cell suspension were dispensed in each well of a 96-wells microplate and then, 100 μL of each compound or standard drug (amphotericin B) at four serial dilution concentrations (200, 50, 12.5 and 3.125 μg/mL) were added dissolved in pbs with 0.5% DMSO. Cell exposed to compounds or standard drugs were incubated 72 h at 37 °C and 5% of CO2. Cytotoxic activity of each compound was determined according to the effect on the cell viability by the MTT microenzymatic method in which 3-(4,5-dimethylthiazol-2-yl)- 2,5-diphenyltetrazolium bromide is reduced to a purple product named formazan by mitochondrial enzyme succinate dehydrogenase. Thus, 10 μL/well of MTT solution (5 mg/mL) were added to each well of exposed and unexposed cells, and plates were incubated at 37 °C, 5% CO2 during 3 h. The reaction was stopped by adding 100 μL/well of isopropanol with 50% and 10% of SDS (sodium dodecyl sulfate). The concentration of formazan was determined spectrophotometrically at 570 nm (Varioskan Flash Multimode Reader, Thermo Scientific, Waltham, MA, USA) and intensity of color (absorbance) was registered as O.D. Cells exposed to control drug (amphotericin B) were used as control for toxicity (positive control) while cell incubated in absence of any compound or drug were used as control for viability (negative control). Non-specific absorbance was corrected by subtracting absorbance (O.D) of the blank. Determinations were done by triplicate in at least two independent experiments.
Cytotoxicity was determined according to viability and mortality percentages obtained for each experimental condition (synthetized compounds, amphotericin B and culture medium). Results were expressed as the mean lethal concentrations (LC50), concentration necessary to kill 50% of cells, calculated by the parametric method of linear regression that permits doses-response analysis (Probit analysis).
Initially, viability percentages were calculated by Equation (1), where the O.D of control well, corresponds to 100% of viability. % viability = (O.D exposed cells/O.D unexposed cells) × 100(1)
Then, the percentage of cell growth inhibition was calculated using Equation (2):% inhibition = 100 − (% Viability)(2)
The toxicity was defined according to LC50 values, using the follow scale: Toxic; LC50 < 100 μM; moderately toxic; LC50 > 100 μM and <200 μM and potentially nontoxic; LC50 > 200 μM.

Data set [1] concerns intracellular amastigotes of Leishmania panamensis (MHOM/CO/87/UA140-EGFP strain). The experiment in a line: In vitro antileishmanial activity on intracellular amastigotes (GFP, flow cytometry). To be noted: for EC50: intracellular amastigotes of L. panamensis in U-937 cells, 72 h, mean ± SD; for SI (index of selectivity, IS = LC50/EC50): LC50 U-937 / EC50 L. panamensis amastigotes. Format: cell-based. As to the method:
Antileishmanial activity of compounds was determined according to the ability of the compound to reduce the infection by L. panamensis parasites. For this, the antileishmanial activity was tested on intracellular amastigotes of L. panamensis transfected with the green fluorescent protein gene (MHOM/CO/87/UA140-EGFP strain). Briefly, U-937 human cells at a density of 3 × 10^5 cells/mL in RPMI 1640 and 0.1 μg/mL of PMA (phorbol-12-myristate-13-acetate) were dispensed on 24-wells microplate and then infected with stationary phase growing L. panamensis promastigotes in 15:1 parasites per cell ratio. Plates were incubated at 34 °C and 5% CO2 for 3 h and then cells were washed twice with phosphate buffer solution (PBS) to eliminate not internalized parasites. Fresh RPMI-1640 was added into each well (1 mL) and plates were incubated again. After 24 h of infection, the RPMI-1640 medium was replaced by fresh culture medium containing each compound at four serial dilutions (50, 12.5, 3.125 and 0.78 μg/mL) and plates were then incubated at 37 °C and 5% CO2 during 72 h, then, cells were removed from the bottom plate with 100 μL of EDTA/Trypsin (250 mg) solution. The cells were centrifuged at 1100 rpm during 10 min at 4 °C, the supernatant was discarded and cells were washed with 1 mL of cold PBS and centrifuged at 1100 rpm for 10 min at 4 °C. Cells were washed two times employing PBS, as previously, and after the last wash, the supernatant was discarded and cells were suspended in 500 μL of PBS.
Cells were analyzed by flow cytometry employing a flow cytometer (cytomics FC 500MPL, Beckman Coulter. Pasadena, CA, USA) reading at 488 nm (exciting) and 525 nm (emitting) over an argon laser and counting 10,000 events. Infected cells were determined according the events for green fluorescence (parasites). All determinations for each compound and standard drug were carried out by triplicate, in two experiments. Infected cells exposed to control drug (amphotericin B) were used as control for antileishmanial activity (positive control) while infected cells incubated in absence of any compound or drug were used as control for infection (negative control). Nonspecific fluorescence was corrected by subtracting fluorescence of unstained cells. Determinations were done by triplicate in at least two independent experiments.
Antileishmanial activity was determined according reduction of percentage of fluorescent parasites determined according to the median fluorescence intensity (MFI), obtained for each experimental condition by cytometry. The parasite values for each concentration of compound were calculated by Equation (3), where the % of parasites in the control well, corresponds to 100% of parasites. % parasites = (MFI exposed parasites/MFI unexposed parasites) × 100(3)
Then, inhibition percentage was calculated with Equation (4):% inhibition of parasites = 100 − (% parasites)(4)
Results of antileishmanial activities were expressed as the median effective concentrations (EC50) measured by Probit method.
A general note: In flow cytometry, cells or beads pass a laser one at a time.

Where [2] appears, read: Leishmania panamensis, U-937, 72 h.

In the data set “in vitro”, `O=C1CC(c2ccc([N+](=O)[O-])cc2)S(=O)(=O)c2ccccc21` (stereo not shown) [Compound 3m, 2-(4-Nitrophenyl)-thiochroman-4-one 1,1-dioxide] gave a CC50 at 72 h greater than 630 µM. In data set [1] (setting [2]), this molecule gave an EC50 greater than 63 µM.
With `O=C1C=C(c2ccc(C(F)(F)F)cc2)S(=O)(=O)c2ccccc21` [Compound 4i, 2-(4-(Trifluoromethyl)-phenyl)-4H-thiochromen-4-one 1,1-dioxide], the CC50 at 72 h in the data set “in vitro” is greater than 591 µM. In data set [1], the “SI (index of selectivity, IS = LC50/EC50)” value was greater than 80.97 and the half-maximal effective concentration (EC50) amounted to 7.3 ± 1.6 µM. The EC50 in data set [1] (setting [2]) was less than 10 µM.
`O=c1cc(-c2ccc(Cl)cc2)sc2ccccc12` [Compound 2k, 2-(4-Chlorophenyl)-4H-thiochromen-4-one] had a CC50 at 72 h in the data set “in vitro” greater than 733 µM. The concentration for a half-maximal effect (EC50) in data set [1] (setting [2]) was greater than 73.3 µM.
`O=C1CC(c2ccc(C(F)(F)F)cc2)S(=O)(=O)c2ccccc21` (stereo not shown) [Compound 3i, 2-(4-(Trifluoromethyl)-phenyl)-thiochroman-4-one 1,1-dioxide] showed a CC50 at 72 h in “in vitro” of 62.9 ± 10.3 µM. Moreover, the “SI (index of selectivity, IS = LC50/EC50)” value in data set [1] amounted to 0.74. This molecule yielded an EC50 in data set [1] (setting [2]) of 84.8 ± 3.23 µM.
The matching figures for `O=C1CC(c2ccc(C(F)(F)F)cc2)Sc2ccc(F)cc21` (stereo not shown) [Compound 1j, 6-Fluoro-2-(4-(trifluoromethyl)-phenyl)thiochroman-4-one]: 129 ± 3.45 µM, 1.60 and 80.3 ± 12.1 µM.
Consider `O=C1CC(c2ccc([N+](=O)[O-])cc2)Sc2ccccc21` (stereo not shown) [Compound 1m, 2-(4-Nitrophenyl)-thiochroman-4-one], for which, in “in vitro”, the CC50 at 72 h was greater than 701 µM. This molecule also came in with a 50% effective concentration (EC50) in data set [1] (setting [2]) greater than 70.1 µM.
In turn, `O=C1CCSc2c1ccc1c2C(=O)CCS1` [Compound 1d, 2,3,8,9-Tetrahydro-4H,10H-thiopyran[2,3-f]thiochromene-4,10-dione] had a CC50 at 72 h in the data set “in vitro” of 279 ± 36.4 µM. Further, the “SI (index of selectivity, IS = LC50/EC50)” value in data set [1] is less than 3.49. This molecule displayed an EC50 in data set [1] (setting [2]) greater than 80 µM.
`O=C1CCSc2ccc([N+](=O)[O-])cc21` [Compound 1f, 6-Nitrothiochroman-4-one] came in with a CC50 at 72 h in “in vitro” greater than 200 µM. The molecule further yielded a concentration for a half-maximal effect (EC50) in data set [1] (setting [2]) greater than 95.6 µM.
Regarding `CC1CC(=O)c2cc(F)ccc2S1(=O)=O` (stereo not shown) [Compound 3b, 6-Fluoro-2-methylthiochroman-4-one 1,1-dioxide], the CC50 at 72 h in “in vitro” is greater than 876 µM. Further, in data set [1] (setting [2]), the EC50 is greater than 87.7 µM.
In the same order, the values of `C[C@@H]1[C@H](O)[C@@H](C)/C=C/C=C/C=C/C=C/C=C/C=C/C=C/[C@H](O[C@@H]2O[C@H](C)[C@@H](O)[C@H](N)[C@@H]2O)C[C@@H]2O[C@](O)(C[C@@H](O)C[C@@H](O)[C@H](O)CC[C@@H](O)C[C@@H](O)CC(=O)O[C@H]1C)C[C@H](O)[C@H]2C(=O)O` [Amphotericin B, reference compound] are 39.6 ± 8.7 µM and 0.32 µM.

The term EC50 denotes the midpoint of the concentration-response curve. Lower therefore signals higher potency in that assay.
